Literature values in US20070160648A1, “Methods for treating otic disorders” (pSivida Inc., priority 2002, published 2007).

patients displaying some vestibular impairment (one gram of streptomycin daily for 60 to 120 days): 25%
Structure (SMILES): [H]/N=C(/N)N[C@H]1[C@H](O)[C@@H](O)[C@H](O[C@@H]2O[C@@H](C)[C@](O)(C=O)[C@H]2O[C@@H]2O[C@@H](CO)[C@H](O)[C@@H](O)[C@@H]2NC)[C@@H](N/C(N)=N\[H])[C@@H]1O [streptomycin]
incidence of vestibular impairment (two grams per day): 75%
